# Assay results taken from PMC8592623, “Enhanced oral bioavailability of koumine by complexation with hydroxypropyl-β-cyclodextrin: preparation, optimization, ex vivo and in vivo characterization” (Drug Delivery, 2021).
# Key:
# [1] = Phase solubility study (Higuchi and Connors); format: physicochemical
# Description: The phase solubility studies were carried out according to the method of Higuchi and Connors (Jansook et al. [2018]; Higuchi & Connors [1965]). Briefly, an excess of KME was added to 200 μL aqueous solutions of different HP-β-CD concentrations (1, 2, 4, 6, 8, and 10 mM). All samples were shaken at 25 °C and 100 rpm for 72 h until reaching equilibrium. Subsequently, the samples were withdrawn and filtered through a 0.45 µm membrane to remove undissolved KME. The concentration of KME in the HP-β-CD solutions was determined by an HPLC method, and the analyses were performed in triplicate (n = 3). The apparent stability constants (Ks) were calculated by the following equation (Nair et al. [2014]; Pinto et al. [2020]): Ks = slope/So (1-slope), where So represents the intrinsic solubility of the drug, and the slope is the slope of the linear KME-CD phase solubility diagram.
# [2] = Saturation solubility in distilled water; format: physicochemical; details: 37 °C, saturated solution
# Description: Excess KME and KME/HP-β-CD were added to distilled water to obtain a supersaturated solution (Arya & Raghav [2021]). The samples were shaken at 37 °C for 24 h and 100 rpm. After centrifugation, the supernatants were filtered through a 0.45 μm membrane and the solubility was determined (n = 3) with the validated HPLC method.
# [3] = In vitro drug release, dialysis bag diffusion method; format: physicochemical; details: pH 6.8 phosphate buffer, 37 °C
# Description: A dialysis bag diffusion method was used to evaluate in vitro drug release profiles of both KME and KME/HP-β-CD (Zhao et al. [2021]). 2 mg of KME was dispersed in water, and then transferred to a dialysis bag and placed in a beaker containing 40 mL of pH 6.8 phosphate buffer. The study was carried out at 37 ± 0.5 °C and a magnetic stirring speed of 100 rpm. Aliquots of approximately 4 mL were taken out at predetermined time intervals (10 min, 15 min, 30 min, 1 h, 2 h, 3 h, and 6 h) and replaced by the same volume of fresh buffer to maintain a constant volume of dissolution media during sampling. The samples were filtered and analyzed by HPLC.
# [4] = test system: rat intestines (everted gut sac: duodenum, jejunum, ileum, colon); assay: Ex vivo everted gut sac experiments; format: in vitro ADME
# Description: The protocol of the animal study was approved by the Institutional Animal Care and Use Committee of Fujian Medical University (permit number: SYXK (Min) 2018-0001), China. Male SD rats weighing 220–250 g were fasted overnight before the experiment and with free access to water. The everted gut sac method was carried out as in previously published reports with minor modifications (Tambe et al. [2019]). Rats were anesthetized and sacrificed, and the intestinal segments of interest were identified and dissected (duodenum, starting 1 cm from the stomach; jejunum, 10–18 cm from the stomach; ileum, starting 8 cm above the cecum; colon, 5 cm below the cecum) (Rong et al. [2013]).
# Each obtained intestinal segment was immediately washed with ice-cold Krebs-Ringer (K-R) solution, and then turned out with a glass rod, and one end was ligated with a thread. After inserting the glass tube, the other open end of the everted sacs was also tightened. Then blank K-R solution (2.5 mL) was added to the everted gut sacs. The everted segments were preincubated in 50 mL of K-R solution at 37 °C for 5 min. […] After the experiment, the length of each intestinal segment was accurately measured, and the concentration of KME was measured by HPLC. The apparent permeability coefficient (Papp) values of KME were calculated by the following equation (Tambe et al. [2019]): […]
# [5] = Cell viability study (CCK-8 assay); format: cell-based; details: human, Caco-2, 5–100 μg/mL, read-out: viability of Caco-2 cells
# Description: The cytotoxicity of KME and KME/HP-β-CD was evaluated in Caco-2 cells using the cell counting kit-8 (CCK-8) assay. Caco-2 cells were cultured in DMEM containing 20% FBS and incubated at 37 °C with 5% CO2. Caco-2 cells (1 × 10^4 cell/well) were seeded in 96-well plates and incubated for 24 h. Then, 100 μL of fresh medium containing KME or KME/HP-β-CD (5–100 µg/mL) was added. After 24 h, the culture medium was changed with CCK-8 solution and the samples were incubated for another 2 h. The optical density (OD) was read at 490 nm (BioTek Instruments, Winooski).
# [6] = Caco-2 permeability study; format: in vitro ADME; details: human, 50 μg/mL KME equivalent
# Description: Caco-2 cells were seeded at a density of 5 × 10^5 cells/well on top of 12-well Transwell® polycarbonate filters, and cultured in a 5% CO2 incubator at 37 °C for 21 days. The medium was changed every 2 days in the first week, and then every day for the next two weeks. At the end of 21 days, a Millicell-ERS epithelial voltmeter (Merck, USA) was used to analyze the transepithelial electrical resistance (TEER) value of Caco-2 cells. Only monolayers with TEER values higher than 600 Ω·cm^2 can be used in subsequent transport experiments (Chen et al. [2018]).
# To investigate the permeability of KME and KME/HP-β-CD inclusion complexes in Caco-2 cells, the apical to basal (A-B) and basal to apical (B-A) transport of KME was measured. After preincubation for 30 min with blank HBSS, 0.5 mL of HBSS medium containing KME or KME/HP-β-CD (equivalent KME concentration of 50 μg/mL) was added to the apical side in the A-B direction experiments, and 1.5 mL of fresh HBSS was added to the basolateral side of the inserts as the acceptor phase. In contrast, for the B-A direction experiments, 1.5 mL of HBSS medium containing KME or KME/HP-β-CD (equivalent KME concentration of 50 μg/mL) was added to the basolateral side, and 0.5 mL of fresh HBSS was added to the apical side of the inserts as the acceptor phase. The plates were incubated in a shaker at 37 °C. 100 μL of the sample were taken from the acceptor side at predetermined time intervals (30, 60, 90, and 120 min) and replaced by the same volume of fresh HBSS to maintain a constant volume. Finally, the obtained samples were analyzed by HPLC. The Papp values (cm/s) were determined using the following equation (McCartney et al. [2019]; Patel & Sawant [2019]): Papp=(dQ/dt)/(A×C0),where dQ/dt is the steady−state flux, A is the surface area of the monolayer (1.12 cm^2), and C0 is the donor concentration (50 μg/mL). TEER (Ω·cm^2)=(TEER (Ω) –TEER blank (Ω)) × A(cm^2)
# Here, TEER (Ω), Caco-2 monolayers; TEER blank (Ω), the insert without cells; A (cm^2), 1.12 cm^2.
# [7] = In vivo pharmacokinetics study after oral administration; details: oral gavage 12 mg/kg, male SD rats, n = 6; for AUC0–12 (AUC0-t): 12 mg/kg
# Description: The in vivo pharmacokinetic study was approved by the Institutional Animal Ethical Committee, Fujian Medical University, China. Male SD rats (200 ± 20 g) have fasted for 12 h with free access to water before oral administration. The rats were divided randomly into two groups (n = 6) and received KME or KME/HP-β-CD by oral gavage at a drug dose of 12 mg/kg. The KME powder and KME/HP-β-CD were dispersed in deionized water containing 0.1% sodium carboxymethylcellulose (CMC-Na). Blood samples were collected at predetermined intervals (0.05, 0.1, 0.16, 0.5, 1, 3, 6, 9, and 12 h) from the retroorbital venous sinus, and placed in heparinized anticoagulant tubes. After centrifugation at 4,000 rpm for 10 min at 4 °C, the plasma was separated and stored at −80 °C until UPLC-MS/MS analysis.
# Plasma samples were prepared by the protein precipitation method (Chen et al. [2013]). Briefly, an aliquot of 50 μL plasma sample and 200 μL of acetonitrile containing 10 ng/mL gelsemine (internal standard, IS) were added to a centrifuge tube. The mixture was vortexed for 5 min and centrifuged at 18,000 rpm for 10 min at 4 °C. Then the supernatant was transferred and injected into the UPLC-MS/MS system for analysis. Chromatographic separation was performed using a UPLC instrument (Agilent 1290, Agilent Technologies, USA), equipped with a mass spectrometer (QTRAP® 5500, AB SCIEX, USA). The mass spectrometer detector was performed with multiple reactions monitoring scan mode at m/z 307.2 → 180.1 for KME and m/z 323.1 → 236.1 for IS. More detailed information about UPLC-MS/MS is provided in the supplementary material. The main pharmacokinetic parameters such as T1/2, Cmax, Tmax, and area under the curve (AUC), were determined using the non-compartmental model with DAS 3.2.1 software. The relative bioavailability F was calculated by the following equation: F(%) =(AUC0–t (inclusion complexes)/AUC0–t(KME)) × 100%
# [8] = parameters: method as in Wang et al. [2019]; details: from parameters of published reports; ref Wang et al. [2019]; cited from earlier work
# [9] = previously investigated in our laboratory; cited from earlier work
# [10] = previously investigated in our laboratory; cited from earlier work; remark: listed apart in the source
# [11] = introduction, no reference given; cited from earlier work
smiles,measurement,setting,value
"C=C[C@@]12CN(C)[C@H]3C[C@]14C(=Nc1ccccc14)[C@H]1C[C@@H]2[C@@H]3CO1 [KME, Koumine]",solubility at 72 h,"[1]; 10 mM HP-β-CD aqueous solution, 25 °C, 72 h, read-out: solubility of KME at 10 mM HP-β-CD",1810 µg/mL
same,increase of KME solubility at 10 mM HP-β-CD,[1]; 10 mM HP-β-CD versus water,2.59 fold
same,solubility thermodynamic at 72 h,"[1]; water, 25 °C, 72 h, no HP-β-CD, read-out: equilibrium solubility of KME in water",700 ± 20 µg/mL
same,solubility at 24 h,[2],700 µg/mL
same,release rate in the first 1 h,[3]; 1 h,40%
same,release rate within 6 h,[3]; 6 h,70%
same,order of absorption flux in the intestinal segments,"[4]; 100 μg/mL, up to 120 min",ileum > duodenum > jejunum > colon
same,KME absorption in colon segment with verapamil versus without,"[4]; colon, verapamil 100 μg/mL (inhibitor of P-gp)",no significant difference
same,viability at 24 h,[5],> 90%
same,"efflux ratio at 120 min, 50 µg/mL",[6]; read-out: efflux ratio (B-A permeability/A-B permeability),1.74
same,"Papp A→B at 120 min, 50 µg/mL","[6]; apical to basal, 120 min",7.78 ± 2.01 ×10⁻⁶ cm/s
same,"Papp B→A at 120 min, 50 µg/mL","[6]; basal to apical, 120 min",13.5 ± 1.72 ×10⁻⁶ cm/s
same,AUC0–12 (AUC0-t),[7]; listed as KME suspension,72.50 ± 15.25 ng·h/mL
same,AUC0–12 (AUC0-t),[7]; listed as Raw KME,26.48 ± 17.80 ng·h/mL
same,AUC(0-inf),"[7]; rat, plasma",30.2 ± 16.6 ng·h/mL
same,Cmax,"[7]; rat, plasma",22.8 ± 15.6 ng/mL
same,Tmax,"[7]; rat, plasma",19.8 ± 12 min
same,half-life,"[7]; rat, plasma",51.6 ± 7.2 min
same,absolute bioavailability (Fabs),[8],1%
same,absolute bioavailability (Fabs) in rats,[9],14.30%
same,absolute bioavailability (Fabs) in beagle dogs,[10],5.67%
same,solubility in water,[11],< 1 mg/mL
